# Assay results: patent US10435399B2, “HDAC6 inhibitory heterocyclic compound” (TAKEDA PHARMACEUTICAL COMPANY LIMITED, priority 2017, dated 2019)
# Target: T1, HDAC6 enzyme (Homo sapiens, UniProt Q9UBN7)
# T1 construct: transducing full length HDAC6 gene into Sf-9 insect cells; GST; purchased SignalChem; host or cells: Sf-9 insect cells
# T1 sequence (Q9UBN7 1-1215): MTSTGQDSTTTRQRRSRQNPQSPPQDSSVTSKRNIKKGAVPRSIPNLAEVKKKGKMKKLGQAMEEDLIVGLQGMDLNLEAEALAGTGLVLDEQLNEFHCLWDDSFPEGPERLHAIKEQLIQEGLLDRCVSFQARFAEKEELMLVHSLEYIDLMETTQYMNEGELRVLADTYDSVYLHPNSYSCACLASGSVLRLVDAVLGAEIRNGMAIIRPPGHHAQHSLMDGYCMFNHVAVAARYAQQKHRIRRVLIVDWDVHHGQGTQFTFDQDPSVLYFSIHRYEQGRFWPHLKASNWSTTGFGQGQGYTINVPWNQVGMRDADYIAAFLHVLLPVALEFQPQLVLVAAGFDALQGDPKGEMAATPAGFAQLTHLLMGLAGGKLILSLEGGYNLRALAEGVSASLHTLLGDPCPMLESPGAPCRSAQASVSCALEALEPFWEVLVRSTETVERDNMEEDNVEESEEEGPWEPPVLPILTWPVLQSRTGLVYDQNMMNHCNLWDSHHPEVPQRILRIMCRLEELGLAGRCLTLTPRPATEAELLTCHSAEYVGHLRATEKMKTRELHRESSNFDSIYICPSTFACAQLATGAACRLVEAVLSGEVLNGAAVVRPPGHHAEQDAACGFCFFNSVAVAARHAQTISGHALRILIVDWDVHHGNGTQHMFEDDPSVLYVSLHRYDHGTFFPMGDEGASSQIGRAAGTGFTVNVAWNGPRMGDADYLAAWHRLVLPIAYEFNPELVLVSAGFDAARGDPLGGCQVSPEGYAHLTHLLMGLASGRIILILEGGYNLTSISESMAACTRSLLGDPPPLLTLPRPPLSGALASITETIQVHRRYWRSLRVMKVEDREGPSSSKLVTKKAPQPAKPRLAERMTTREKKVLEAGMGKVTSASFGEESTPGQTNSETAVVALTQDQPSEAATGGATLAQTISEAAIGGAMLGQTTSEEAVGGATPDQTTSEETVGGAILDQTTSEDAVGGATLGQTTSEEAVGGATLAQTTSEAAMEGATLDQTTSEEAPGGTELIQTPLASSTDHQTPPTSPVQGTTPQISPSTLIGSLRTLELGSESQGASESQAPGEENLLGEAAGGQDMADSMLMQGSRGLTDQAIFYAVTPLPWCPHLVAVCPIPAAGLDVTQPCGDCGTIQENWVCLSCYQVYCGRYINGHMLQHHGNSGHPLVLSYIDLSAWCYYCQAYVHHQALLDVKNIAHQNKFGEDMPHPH
# Test: HDAC6 enzyme inhibitory activity (HDAC-Glo I/II Assay kit)
# Type: biochemical
# Settings: 10 μM; wells without enzyme = 100% inhibition
# Procedure: HDAC6 enzyme prepared by transducing full length HDAC6 gene into Sf-9 insect cells and purifying by GST affinity column were purchased from SignalChem. Using this enzyme, HDAC6 enzyme inhibitory activities of the compound of the present invention were evaluated. Enzymes were used after preserved at −70° C. HDAC6 enzyme inhibitory activity of the compound of the present invention was measured using HDAC-Glo™ I/II Assay kit (Promega) according to the following experimental method. The test compound diluted with assay buffer (24 mM Tris-HCl (pH 7.5), 1 mM MgCl2, 0.35 mM KCl, 135 mM NaCl, 0.6 mM Glutathione, 0.01% Tween-20) was added to a 384-well plate by each 2 μL. Then, HDAC6 enzyme solution diluted with assay buffer was added thereto by each 4 μL, and the plate was incubated at room temperature for 60 min. After incubated, HDAC substrate-Developer solution prepared according to Promega protocol attached to the assay kit was added to the 384-well plate by each 2 μL, and the enzyme reaction was started. After reacting at room temperature for 20 min, luminescence level was measured using plate reader Envision (PerkinElmer). The inhibitory activity of each compound of Example was calculated as a relative activity value when luminescence level in wells without enzyme is considered as 100% inhibition.
row,SMILES,HDAC6 inhibitory rate (%) (10 μM)
1,"O=C1c2cc(-c3nnc(C(F)F)o3)ccc2CN1[C@@H]1CCC(F)(F)C[C@@H]1c1ccccn1 (relative stereo) [Example 591, 6-(5-(difluoromethyl)-1,3,4-oxadiazol-2-yl)-2-((1R*,2S*)-4,4-difluoro-2-(pyridin-2-yl)cyclohexyl)isoindolin-1-one (optical isomer)]",99%

# Same assay, conditions: 10 μM; wells without enzyme = 100% inhibition; read-out: HDAC6 inhibitory rate (%) (10 μM)
row,SMILES,inhibition at 10 µM
1,"O=C1CCCN1[C@@H]1COCC[C@H]1N1Cc2ccc(-c3nnc(C(F)F)o3)cc2C1=O [Example 1, 6-(5-(difluoromethyl)-1,3,4-oxadiazol-2-yl)-2-((3S,4R)-3-(2-oxopyrrolidin-1-yl)tetrahydro-2H-pyran-4-yl)isoindolin-1-one]",101%
2,"O=C1CCCN1[C@@H]1CCCC[C@H]1N1Cc2ccc(-c3nnc(C(F)F)o3)cc2C1=O [Example 2, 6-(5-(difluoromethyl)-1,3,4-oxadiazol-2-yl)-2-((1R,2R)-2-(2-oxopyrrolidin-1-yl)cyclohexyl)isoindolin-1-one]",99%
3,"CC(C)(C)OC(=O)N[C@@H]1CCCC[C@H]1N1Cc2ccc(-c3nnc(C(F)F)o3)cc2C1=O [Example 3, tert-butyl ((1R,2R)-2-(6-(5-(difluoromethyl)-1,3,4-oxadiazol-2-yl)-1-oxo-1,3-dihydro-2H-isoindol-2-yl)cyclohexyl)carbamate]",99%
4,"O=C1c2cc(-c3nnc(C(F)F)o3)ccc2CN1[C@@H]1CCCC[C@H]1N1CCCS1(=O)=O [Example 4, 6-(5-(difluoromethyl)-1,3,4-oxadiazol-2-yl)-2-((1R,2R)-2-(1,1-dioxido-1,2-thiazolidin-2-yl)cyclohexyl)isoindolin-1-one]",99%
5,"CC(C)C(=O)N[C@@H]1CCCC[C@H]1N1Cc2ccc(-c3nnc(C(F)F)o3)cc2C1=O [Example 9, N-((1R,2R)-2-(6-(5-(difluoromethyl)-1,3,4-oxadiazol-2-yl)-1-oxo-1,3-dihydro-2H-isoindol-2-yl)cyclohexyl)-2-methylpropanamide]",102%
6,"O=C(N[C@@H]1CCCC[C@H]1N1Cc2ccc(-c3nnc(C(F)F)o3)cc2C1=O)C1CC1 [Example 11, N-((1R,2R)-2-(6-(5-(difluoromethyl)-1,3,4-oxadiazol-2-yl)-1-oxo-1,3-dihydro-2H-isoindol-2-yl)cyclohexyl)cyclopropanecarboxamide]",98%
7,"O=C(N[C@@H]1CCCC[C@H]1N1Cc2ccc(-c3nnc(C(F)F)o3)cc2C1=O)C1CCC1 [Example 12, N-((1R,2R)-2-(6-(5-(difluoromethyl)-1,3,4-oxadiazol-2-yl)-1-oxo-1,3-dihydro-2H-isoindol-2-yl)cyclohexyl)cyclobutanecarboxamide]",100%
8,"O=C1c2ccccc2CN1[C@@H]1CCCC[C@H]1N1Cc2ccc(-c3nnc(C(F)F)o3)cc2C1=O [Example 14, 6-(5-(difluoromethyl)-1,3,4-oxadiazol-2-yl)-2-((1R,2R)-2-(1-oxo-1,3-dihydro-2H-isoindol-2-yl)cyclohexyl)isoindolin-1-one]",100%
9,"CC1(C(=O)N[C@@H]2CCCC[C@H]2N2Cc3ccc(-c4nnc(C(F)F)o4)cc3C2=O)CC1 [Example 15, N-((1R,2R)-2-(6-(5-(difluoromethyl)-1,3,4-oxadiazol-2-yl)-1-oxo-1,3-dihydro-2H-isoindol-2-yl)cyclohexyl)-1-methylcyclopropanecarboxamide]",98%
10,"CC1(C(=O)N[C@@H]2CCCC[C@H]2N2Cc3ccc(-c4nnc(C(F)F)o4)cc3C2=O)COC1 [Example 16, N-((1R,2R)-2-(6-(5-(difluoromethyl)-1,3,4-oxadiazol-2-yl)-1-oxo-1,3-dihydro-2H-isoindol-2-yl)cyclohexyl)-3-methyloxetane-3-carboxamide]",100%
11,"N#CC1(C(=O)N[C@@H]2CCCC[C@H]2N2Cc3ccc(-c4nnc(C(F)F)o4)cc3C2=O)CC1 [Example 17, 1-cyano-N-((1R,2R)-2-(6-(5-(difluoromethyl)-1,3,4-oxadiazol-2-yl)-1-oxo-1,3-dihydro-2H-isoindol-2-yl)cyclohexyl)cyclopropanecarboxamide]",101%
12,"O=C1CCCCN1[C@@H]1CCCC[C@H]1N1Cc2ccc(-c3nnc(C(F)F)o3)cc2C1=O [Example 20, 6-(5-(difluoromethyl)-1,3,4-oxadiazol-2-yl)-2-((1R,2R)-2-(2-oxopiperidin-1-yl)cyclohexyl)isoindolin-1-one]",100%

# Results, then the compound that gave them:
row,inhibition at 10 µM,SMILES
1,100%,"O=C(NC1CC(F)(F)CC[C@H]1N1Cc2ccc(-c3nnc(C(F)F)o3)cc2C1=O)OCc1ccccc1 (stereo in doubt) [Example 517, benzyl ((1S,2R)-2-(6-(5-(difluoromethyl)-1,3,4-oxadiazol-2-yl)-1-oxo-1,3-dihydro-2H-isoindol-2-yl)-5,5-difluorocyclohexyl) carbamate]"
2,100%,"CC(=O)N[C@@H]1CCCC[C@H]1N1Cc2ccc(-c3nnc(C(F)F)o3)cc2C1=O [Example 5, N-((1R,2R)-2-(6-(5-(difluoromethyl)-1,3,4-oxadiazol-2-yl)-1-oxo-1,3-dihydro-2H-isoindol-2-yl)cyclohexyl)acetamide]"
3,102%,"O=C1c2cc(-c3nnc(C(F)F)o3)ccc2CN1[C@@H]1CCCC[C@H]1NC(=O)C(F)(F)F [Example 6, N-((1R,2R)-2-(6-(5-(difluoromethyl)-1,3,4-oxadiazol-2-yl)-1-oxo-1,3-dihydro-2H-isoindol-2-yl)cyclohexyl)-2,2,2-trifluoroacetamide]"
4,99%,"CCC(=O)N[C@@H]1CCCC[C@H]1N1Cc2ccc(-c3nnc(C(F)F)o3)cc2C1=O [Example 7, N-((1R,2R)-2-(6-(5-(difluoromethyl)-1,3,4-oxadiazol-2-yl)-1-oxo-1,3-dihydro-2H-isoindol-2-yl)cyclohexyl)propanamide]"
5,101%,"O=C(N[C@@H]1CCCC[C@H]1N1Cc2ccc(-c3nnc(C(F)F)o3)cc2C1=O)OC1CC1 [Example 8, cyclopropyl ((1R,2R)-2-(6-(5-(difluoromethyl)-1,3,4-oxadiazol-2-yl)-1-oxo-1,3-dihydro-2H-isoindol-2-yl)cyclohexyl)carbamate]"
6,99%,"COC(=O)N[C@@H]1CCCC[C@H]1N1Cc2ccc(-c3nnc(C(F)F)o3)cc2C1=O [Example 10, methyl((1R,2R)-2-(6-(5-(difluoromethyl)-1,3,4-oxadiazol-2-yl)-1-oxo-1,3-dihydro-2H-isoindol-2-yl)cyclohexyl)carbamate]"
7,101%,"O=C(CC(F)(F)F)N[C@@H]1CCCC[C@H]1N1Cc2ccc(-c3nnc(C(F)F)o3)cc2C1=O [Example 13, N-((1R,2R)-2-(6-(5-(difluoromethyl)-1,3,4-oxadiazol-2-yl)-1-oxo-1,3-dihydro-2H-isoindol-2-yl)cyclohexyl)-3,3,3-trifluoropropanamide]"
8,100%,"O=C(N[C@@H]1CCCC[C@H]1N1Cc2ccc(-c3nnc(C(F)F)o3)cc2C1=O)[C@@H]1CC1(F)F [Example 18, (1S)—N-((1R,2R)-2-(6-(5-(difluoromethyl)-1,3,4-oxadiazol-2-yl)-1-oxo-1,3-dihydro-2H-isoindol-2-yl)cyclohexyl)-2,2-difluorocyclopropanecarboxamide]"
9,101%,"O=C1c2cc(-c3nnc(C(F)F)o3)ccc2CN1[C@@H]1CCCC[C@H]1NC(=O)C1(F)CC1 [Example 19, N-((1R,2R)-2-(6-(5-(difluoromethyl)-1,3,4-oxadiazol-2-yl)-1-oxo-1,3-dihydro-2H-isoindol-2-yl)cyclohexyl)-1-fluorocyclopropanecarboxamide]"
